The target in series [1] is T1, CHIKV nsP1 (Chikungunya virus strain S27-African prototype, UniProt Q8JUX6).
T1 sequence (Q8JUX6 1-535): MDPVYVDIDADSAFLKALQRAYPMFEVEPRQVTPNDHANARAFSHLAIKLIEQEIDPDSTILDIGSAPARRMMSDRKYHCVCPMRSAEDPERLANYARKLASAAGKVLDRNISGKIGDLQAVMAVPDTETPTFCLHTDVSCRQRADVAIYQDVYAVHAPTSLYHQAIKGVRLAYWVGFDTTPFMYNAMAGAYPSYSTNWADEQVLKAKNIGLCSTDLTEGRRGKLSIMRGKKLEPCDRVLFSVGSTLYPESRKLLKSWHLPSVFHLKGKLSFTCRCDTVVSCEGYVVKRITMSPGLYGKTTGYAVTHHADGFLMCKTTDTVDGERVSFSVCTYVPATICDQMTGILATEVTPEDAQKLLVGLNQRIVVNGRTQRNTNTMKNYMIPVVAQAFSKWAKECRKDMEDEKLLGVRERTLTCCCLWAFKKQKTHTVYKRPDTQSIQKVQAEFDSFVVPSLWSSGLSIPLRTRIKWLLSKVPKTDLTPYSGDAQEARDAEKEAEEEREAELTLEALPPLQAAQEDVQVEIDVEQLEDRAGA
Kind of series: biochemical.

Series [2] can be described thus: in vitro. Conditions: hamster, bhk-21 cells.
A short description of series [3]: in vitro. Conditions: monkey, vero cells.
Another series deals with Chikungunya virus CHIKV. Briefly: microbe, parasite or virus in culture. As to conditions: read-out: Plaque reduction assay IC50 (nM).
The subject of a further series is Sindbis virus SINV. Kind of series: microbe, parasite or virus in culture. Conditions: BHK-21, read-out: SINV replicon assay IC50 (μM).
In series [4] the target is T1, CHIKV nsP1. Format: binding.

Structures can show the parent of a compound that is named as a salt. Where two headings read alike, the source gives them in different places.

In turn, `COc1cc2c3cc1Oc1c(OC)c(OC)cc4c1[C@@H](Cc1cccc(c1)Oc1ccc(c(O)c1)C[C@@H]3N(C)CC2)N(C)CC4` [Berbamine Hydrochloride] displayed a dissociation constant Kd on CHIKV nsP1 [1] of 5.45 ± 0.77 µM. For the same compound, the CC50 at 24 h in the series “in vitro [2]” was 46 µM; in the series “in vitro [3]”, more than 25 µM. For the same compound, the IC50 in the series on Chikungunya virus CHIKV was less than 100 nM; in the series on Sindbis virus SINV it was 1.94 ± 0.97 µM.
At CHIKV nsP1 [4], `Cc1ccc(C(=O)Nc2ccc(CN3CCN(C)CC3)c(C(F)(F)F)c2)cc1C#Cc1cnc2cccnn12` [Ponatinib] came in with an equilibrium dissociation constant (Kd) of approximately 3.83 µM. Also, the half-maximal cytotoxic concentration (CC50) at 24 h was 2.4 µM in the series “in vitro [2]” and 7.95 µM in the series “in vitro [3]”. Also, the figures for the 50% inhibitory concentration (IC50) with Chikungunya virus CHIKV and with Sindbis virus SINV were less than 3.9 nM and more than 1.25 µM, respectively.
For `CC1(C)CCC(CN2CCN(c3ccc(C(=O)NS(=O)(=O)c4ccc(NCC5CCOCC5)c([N+](=O)[O-])c4)c(Oc4cnc5[nH]ccc5c4)c3)CC2)=C(c2ccc(Cl)cc2)C1` [ABT199/Venetoclax] the same measures were approximately 161 µM, more than 2.5 µM, 5 µM, 3.46 ± 1.31 nM and 0.23 ± 0.04 µM.
